From patent publication US10266537B2, “3-acetylenyl-pyrazole-pyrimidine derivative, and preparation method therefor and uses thereof” (Si Chuan University, priority 2015, dated 2019)
One block for each molecule: values may come before it.

Columns and labels:
[1] = tested on: transgenic FLK1-GFP fluorescent zebrafish; experiment: Anti-angiogenesis activity in transgenic zebrafish; format: in vivo; settings: FLK1 transgenic zebrafish embryos; 10, 5 and 2.5 μg/mL; compared with the control group
Protocol: Angiogenesis inhibitory activity of the test compound is represented by the extent of inhibition vascular section between zebrafish with concentrations of 10 μg/mL, 5 μg/mL and 2.5 μg/mL. The positive control is Dasatinib, a drug in breast cancer clinical trials.
Zebrafish Embryo Access: The zebrafish used in this experiment is a vascular fluorescence transgenic zebrafish (FLK1: GFP). The breeding and breeding of zebrafish is based on Westerfield's method. In the day before egg collection, the male and female zebrafish were paired by the ratio 1:1 a. The next day, they natural mating and spawning at a temperature of about 28° C. and sufficient light. Sufficient zebrafish embryos were collected, washed and placed in embryonic culture medium and placed in a 28° C. incubator. The use of morphological and development criteria to identify survival at any time, dead embryos were white, should be promptly removed to prevent water quality deterioration. […]
Results observed: After zebrafish embryos fertilized 31 h, stripped shell eggs. The embryos were then placed on slides and fixed with 1.5% methylcellulose containing 1‰ of triacaine, followed by observing the count of Inter segmental vessels (ISVs) under fluorescence microscopy.

[2] = target: PI3 Kinase (p110b/p85a)(m) (Mus musculus (Mouse), UniProt Q8BTI9); experiment: Kinase inhibition assay (KinaseProfiler, 33P-ATP); format: biochemical; settings: read-out: The percentage of the remaining active protein
NEK2(h) = NEK2(h) (Homo sapiens (Human), UniProt P51955); experiment: Kinase inhibition assay (KinaseProfiler, 33P-ATP); format: biochemical; settings: read-out: The percentage of the remaining active protein
[3] = target: PI3 Kinase (p110a(E545K)/p85a)(h) (Homo sapiens (Human), UniProt P42336, E545K); experiment: Kinase inhibition assay (KinaseProfiler, 33P-ATP); format: biochemical; settings: read-out: The percentage of the remaining active protein
BRK = BRK (Homo sapiens (Human), UniProt Q13882); experiment: Kinase inhibition assay (KinaseProfiler, 33P-ATP); format: biochemical; settings: BRK(h), read-out: The percentage of the remaining active protein
EGFR(T790M) = EGFR(T790M) (Homo sapiens (Human), UniProt P00533, T790M); experiment: Kinase inhibition assay (KinaseProfiler, 33P-ATP); format: biochemical; settings: EGFR(T790M)(h), read-out: The percentage of the remaining active protein
Hck(h) activated = Hck(h) activated (Homo sapiens (Human), UniProt P08631); experiment: Kinase inhibition assay (KinaseProfiler, 33P-ATP); format: biochemical; settings: read-out: The percentage of the remaining active protein
GRK1(h) = GRK1(h) (Homo sapiens (Human), UniProt Q15835); experiment: Kinase inhibition assay (KinaseProfiler, 33P-ATP); format: biochemical; settings: read-out: The percentage of the remaining active protein
LIMK1 = LIMK1 (Homo sapiens (Human), UniProt P53667); experiment: biochemical; settings: read-out: The percentage of the remaining active protein
STK33(h) = STK33(h) (Homo sapiens (Human), UniProt Q9BYT3); experiment: Kinase inhibition assay (KinaseProfiler, 33P-ATP); format: biochemical; settings: read-out: The percentage of the remaining active protein
EGFR(L861Q)(h) = EGFR(L861Q)(h) (Homo sapiens (Human), UniProt P00533, L861Q); experiment: Kinase inhibition assay (KinaseProfiler, 33P-ATP); format: biochemical; settings: read-out: The percentage of the remaining active protein
[4] = target: PI3 Kinase (p110a(H1047R)/p85a)(m) (Mus musculus (Mouse), UniProt P42337, H1047R); experiment: Kinase inhibition assay (KinaseProfiler, 33P-ATP); format: biochemical; settings: read-out: The percentage of the remaining active protein
CHK2(h) = CHK2(h) (Homo sapiens (Human), UniProt O96017); experiment: Kinase inhibition assay (KinaseProfiler, 33P-ATP); format: biochemical; settings: read-out: The percentage of the remaining active protein
LRRK2(h) = LRRK2(h) (Homo sapiens (Human), UniProt Q5S007); experiment: Kinase inhibition assay (KinaseProfiler, 33P-ATP); format: biochemical; settings: read-out: The percentage of the remaining active protein
U251 = experiment: Cell proliferation inhibition assay (MTT); format: cell-based; settings: Homo sapiens, U-251, 72 hours, read-out: Proliferation inhibitory activity IC50
Mer = Mer (Homo sapiens (Human), UniProt Q12866); experiment: Kinase inhibition assay (KinaseProfiler, 33P-ATP); format: biochemical; settings: Mer(h), read-out: The percentage of the remaining active protein
CaMKIIδ(h) = CaMKIIδ(h) (Homo sapiens (Human), UniProt Q13557); experiment: Kinase inhibition assay (KinaseProfiler, 33P-ATP); format: biochemical; settings: read-out: The percentage of the remaining active protein
MRCKβ(h) = MRCKβ(h) (Homo sapiens (Human), UniProt Q9Y5S2); experiment: Kinase inhibition assay (KinaseProfiler, 33P-ATP); format: biochemical; settings: read-out: The percentage of the remaining active protein
PKCβII(h) = PKCβII(h) (Homo sapiens (Human), UniProt P05771); experiment: Kinase inhibition assay (KinaseProfiler, 33P-ATP); format: biochemical; settings: read-out: The percentage of the remaining active protein
SGK(h) = SGK(h) (Homo sapiens (Human), UniProt O00141); experiment: Kinase inhibition assay (KinaseProfiler, 33P-ATP); format: biochemical; settings: read-out: The percentage of the remaining active protein
PKCμ(h) = PKCμ(h) (Homo sapiens (Human), UniProt Q15139); experiment: Kinase inhibition assay (KinaseProfiler, 33P-ATP); format: biochemical; settings: read-out: The percentage of the remaining active protein
HIPK3(h) = HIPK3(h) (Homo sapiens (Human), UniProt Q9H422); experiment: Kinase inhibition assay (KinaseProfiler, 33P-ATP); format: biochemical; settings: read-out: The percentage of the remaining active protein
PRK2(h) = PRK2(h) (Homo sapiens (Human), UniProt Q16513); experiment: Kinase inhibition assay (KinaseProfiler, 33P-ATP); format: biochemical; settings: read-out: The percentage of the remaining active protein
GRK7(h) = GRK7(h) (Homo sapiens (Human), UniProt Q8WTQ7); experiment: Kinase inhibition assay (KinaseProfiler, 33P-ATP); format: biochemical; settings: read-out: The percentage of the remaining active protein
Txk = Txk (Homo sapiens (Human), UniProt P42681); experiment: Kinase inhibition assay (KinaseProfiler, 33P-ATP); format: biochemical; settings: Txk(h), read-out: The percentage of the remaining active protein
ALK2(h) = ALK2(h) (Homo sapiens (Human), UniProt Q04771); experiment: Kinase inhibition assay (KinaseProfiler, 33P-ATP); format: biochemical; settings: read-out: The percentage of the remaining active protein
CSK = CSK (Homo sapiens (Human), UniProt P41240); experiment: Kinase inhibition assay (KinaseProfiler, 33P-ATP); format: biochemical
PhKγ2(h) = PhKγ2(h) (Homo sapiens (Human), UniProt P15735); experiment: Kinase inhibition assay (KinaseProfiler, 33P-ATP); format: biochemical; settings: read-out: The percentage of the remaining active protein

Sequence of EGFR(T790M) (P00533 25-1210 T790M): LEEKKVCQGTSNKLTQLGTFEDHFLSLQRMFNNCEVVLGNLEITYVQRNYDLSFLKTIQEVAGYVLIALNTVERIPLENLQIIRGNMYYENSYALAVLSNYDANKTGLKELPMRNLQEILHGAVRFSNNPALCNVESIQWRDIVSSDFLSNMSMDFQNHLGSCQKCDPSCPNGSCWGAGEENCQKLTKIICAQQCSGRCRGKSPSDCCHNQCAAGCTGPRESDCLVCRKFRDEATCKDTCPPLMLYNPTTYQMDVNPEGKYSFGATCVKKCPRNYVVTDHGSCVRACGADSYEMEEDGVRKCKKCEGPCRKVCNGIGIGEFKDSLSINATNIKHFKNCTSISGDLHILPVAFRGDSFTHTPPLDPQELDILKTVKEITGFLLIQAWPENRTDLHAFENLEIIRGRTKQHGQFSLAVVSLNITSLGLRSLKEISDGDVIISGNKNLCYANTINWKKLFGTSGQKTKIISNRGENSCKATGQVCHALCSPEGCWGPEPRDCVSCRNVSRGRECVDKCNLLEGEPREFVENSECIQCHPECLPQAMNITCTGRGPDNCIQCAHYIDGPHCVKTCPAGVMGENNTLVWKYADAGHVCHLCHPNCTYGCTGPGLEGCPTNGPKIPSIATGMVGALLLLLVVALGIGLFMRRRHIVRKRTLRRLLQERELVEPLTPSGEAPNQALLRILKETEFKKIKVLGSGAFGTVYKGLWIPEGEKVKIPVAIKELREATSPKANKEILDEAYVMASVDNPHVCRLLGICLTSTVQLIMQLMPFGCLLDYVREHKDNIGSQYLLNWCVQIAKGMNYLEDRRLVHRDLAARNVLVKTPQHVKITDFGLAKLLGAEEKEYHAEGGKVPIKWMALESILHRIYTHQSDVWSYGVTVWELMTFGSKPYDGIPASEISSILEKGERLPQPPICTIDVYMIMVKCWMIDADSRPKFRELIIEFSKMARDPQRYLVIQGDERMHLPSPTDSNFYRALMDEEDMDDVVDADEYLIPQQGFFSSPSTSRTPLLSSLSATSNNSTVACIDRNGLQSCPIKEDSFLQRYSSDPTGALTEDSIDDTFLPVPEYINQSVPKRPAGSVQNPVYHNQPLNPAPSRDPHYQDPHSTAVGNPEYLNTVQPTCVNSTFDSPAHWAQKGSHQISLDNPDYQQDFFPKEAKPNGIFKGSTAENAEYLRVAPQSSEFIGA
Sequence of CHK2(h) (O96017 whole entry): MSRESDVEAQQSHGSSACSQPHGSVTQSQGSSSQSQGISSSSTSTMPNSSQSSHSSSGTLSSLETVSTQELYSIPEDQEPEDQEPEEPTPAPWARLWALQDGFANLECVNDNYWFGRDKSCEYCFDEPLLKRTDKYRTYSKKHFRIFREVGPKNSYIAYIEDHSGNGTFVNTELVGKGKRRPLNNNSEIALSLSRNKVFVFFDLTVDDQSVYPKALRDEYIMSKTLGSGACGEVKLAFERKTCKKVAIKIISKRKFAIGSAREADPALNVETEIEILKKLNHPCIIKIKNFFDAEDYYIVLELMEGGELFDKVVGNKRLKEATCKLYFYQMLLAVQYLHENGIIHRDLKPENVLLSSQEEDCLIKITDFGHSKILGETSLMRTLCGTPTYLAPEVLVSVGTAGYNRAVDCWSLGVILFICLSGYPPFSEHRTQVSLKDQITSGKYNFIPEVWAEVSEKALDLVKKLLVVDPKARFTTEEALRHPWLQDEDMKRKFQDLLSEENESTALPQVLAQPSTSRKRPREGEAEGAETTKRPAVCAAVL
Sequence of EGFR(L861Q)(h) (P00533 25-1210 L861Q): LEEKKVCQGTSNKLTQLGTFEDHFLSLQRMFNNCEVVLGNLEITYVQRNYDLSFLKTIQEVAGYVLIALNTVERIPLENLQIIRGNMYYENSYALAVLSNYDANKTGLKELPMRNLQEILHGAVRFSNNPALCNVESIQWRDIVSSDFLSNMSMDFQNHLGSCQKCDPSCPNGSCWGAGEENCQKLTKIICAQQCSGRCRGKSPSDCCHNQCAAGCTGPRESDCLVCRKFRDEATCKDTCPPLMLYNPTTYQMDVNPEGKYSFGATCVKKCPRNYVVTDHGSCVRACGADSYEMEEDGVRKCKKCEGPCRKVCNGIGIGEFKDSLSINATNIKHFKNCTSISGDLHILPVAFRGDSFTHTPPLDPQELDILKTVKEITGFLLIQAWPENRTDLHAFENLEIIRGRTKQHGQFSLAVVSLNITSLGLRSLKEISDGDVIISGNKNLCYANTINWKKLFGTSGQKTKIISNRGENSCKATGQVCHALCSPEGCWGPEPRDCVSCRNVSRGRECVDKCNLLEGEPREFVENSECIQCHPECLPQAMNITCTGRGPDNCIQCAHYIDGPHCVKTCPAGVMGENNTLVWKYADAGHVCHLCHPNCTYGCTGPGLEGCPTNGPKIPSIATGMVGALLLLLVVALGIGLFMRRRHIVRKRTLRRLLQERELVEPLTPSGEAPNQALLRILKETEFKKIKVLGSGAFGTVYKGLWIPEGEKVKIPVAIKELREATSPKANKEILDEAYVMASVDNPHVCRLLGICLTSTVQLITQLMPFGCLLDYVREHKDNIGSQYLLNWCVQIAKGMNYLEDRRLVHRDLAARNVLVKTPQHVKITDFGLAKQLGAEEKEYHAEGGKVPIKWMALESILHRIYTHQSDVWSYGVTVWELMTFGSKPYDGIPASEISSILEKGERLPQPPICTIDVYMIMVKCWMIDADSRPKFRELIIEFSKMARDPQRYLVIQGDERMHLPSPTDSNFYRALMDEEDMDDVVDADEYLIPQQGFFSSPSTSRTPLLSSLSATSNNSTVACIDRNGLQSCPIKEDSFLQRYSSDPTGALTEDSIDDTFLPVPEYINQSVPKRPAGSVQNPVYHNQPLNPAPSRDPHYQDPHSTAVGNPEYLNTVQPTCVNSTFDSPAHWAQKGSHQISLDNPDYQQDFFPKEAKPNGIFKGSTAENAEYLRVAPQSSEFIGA
Sequence of BRK (Q13882 whole entry): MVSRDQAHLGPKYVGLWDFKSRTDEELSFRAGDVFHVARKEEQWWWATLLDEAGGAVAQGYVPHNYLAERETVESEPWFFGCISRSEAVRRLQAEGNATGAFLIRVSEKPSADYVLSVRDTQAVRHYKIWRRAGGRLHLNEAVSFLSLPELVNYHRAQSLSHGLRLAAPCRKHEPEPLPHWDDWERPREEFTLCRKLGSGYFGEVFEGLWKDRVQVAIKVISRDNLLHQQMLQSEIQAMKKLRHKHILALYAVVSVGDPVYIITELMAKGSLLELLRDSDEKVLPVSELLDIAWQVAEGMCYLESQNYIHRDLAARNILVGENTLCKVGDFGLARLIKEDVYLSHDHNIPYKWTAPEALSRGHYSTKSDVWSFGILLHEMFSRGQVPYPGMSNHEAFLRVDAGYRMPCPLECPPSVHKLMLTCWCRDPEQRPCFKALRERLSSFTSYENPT
Sequence of LIMK1 (P53667 whole entry): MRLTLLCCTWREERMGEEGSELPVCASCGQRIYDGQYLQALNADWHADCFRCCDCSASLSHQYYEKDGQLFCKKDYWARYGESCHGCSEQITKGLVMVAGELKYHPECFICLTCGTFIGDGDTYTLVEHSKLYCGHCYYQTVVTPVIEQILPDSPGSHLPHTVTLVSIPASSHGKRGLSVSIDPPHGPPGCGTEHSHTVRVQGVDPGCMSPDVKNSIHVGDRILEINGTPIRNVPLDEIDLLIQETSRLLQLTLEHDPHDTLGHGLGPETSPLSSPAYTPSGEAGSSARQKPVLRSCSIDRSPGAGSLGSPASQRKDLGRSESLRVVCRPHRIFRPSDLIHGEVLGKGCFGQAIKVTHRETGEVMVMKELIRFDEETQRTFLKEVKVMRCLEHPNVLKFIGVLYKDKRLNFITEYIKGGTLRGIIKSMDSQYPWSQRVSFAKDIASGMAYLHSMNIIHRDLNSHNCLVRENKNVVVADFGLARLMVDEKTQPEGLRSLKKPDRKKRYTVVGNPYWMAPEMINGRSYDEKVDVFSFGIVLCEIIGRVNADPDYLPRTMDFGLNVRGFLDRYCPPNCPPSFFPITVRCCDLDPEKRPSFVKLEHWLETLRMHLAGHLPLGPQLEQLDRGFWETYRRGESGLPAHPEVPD
Sequence of PRK2(h) (Q16513 whole entry): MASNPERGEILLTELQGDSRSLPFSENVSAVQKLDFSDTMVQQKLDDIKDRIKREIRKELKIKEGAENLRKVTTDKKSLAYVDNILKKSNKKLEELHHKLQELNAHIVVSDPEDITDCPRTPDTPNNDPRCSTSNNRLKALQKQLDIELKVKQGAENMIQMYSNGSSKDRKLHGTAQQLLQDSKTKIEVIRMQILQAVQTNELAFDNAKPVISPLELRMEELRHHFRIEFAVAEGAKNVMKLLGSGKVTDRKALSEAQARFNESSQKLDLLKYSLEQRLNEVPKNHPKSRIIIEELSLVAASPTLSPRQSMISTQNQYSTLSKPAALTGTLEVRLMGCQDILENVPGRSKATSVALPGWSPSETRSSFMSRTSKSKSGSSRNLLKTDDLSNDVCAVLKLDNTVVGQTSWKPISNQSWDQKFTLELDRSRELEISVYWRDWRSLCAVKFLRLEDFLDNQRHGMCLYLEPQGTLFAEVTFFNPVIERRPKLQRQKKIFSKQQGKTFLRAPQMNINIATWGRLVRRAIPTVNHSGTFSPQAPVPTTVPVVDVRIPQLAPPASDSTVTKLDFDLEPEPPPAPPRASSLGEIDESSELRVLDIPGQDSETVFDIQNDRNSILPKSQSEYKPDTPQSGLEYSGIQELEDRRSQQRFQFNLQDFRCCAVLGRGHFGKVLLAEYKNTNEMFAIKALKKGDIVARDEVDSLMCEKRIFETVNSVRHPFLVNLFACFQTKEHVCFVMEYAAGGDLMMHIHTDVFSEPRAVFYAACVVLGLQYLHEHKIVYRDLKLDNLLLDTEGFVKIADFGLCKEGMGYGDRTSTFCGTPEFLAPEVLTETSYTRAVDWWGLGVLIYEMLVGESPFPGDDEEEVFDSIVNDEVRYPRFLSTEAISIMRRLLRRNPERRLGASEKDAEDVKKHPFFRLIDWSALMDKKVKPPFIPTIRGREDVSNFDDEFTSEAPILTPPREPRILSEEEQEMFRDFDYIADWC

SMILES: Cc1ccc(NC(=O)c2cccc(C(F)(F)F)c2)cc1C#Cc1nn(C2CCN(C)CC2)c2ncnc(N)c12 [Compound 31]
inhibition of angiogenesis (inter segmental vessels) [1]: inhibit the angiogenesis of zebrafish significantly

remaining activity at 10 µM [2]: 84%
remaining activity at 10 µM (NEK2(h)): 117%
remaining activity at 10 µM [3]: 92%
remaining activity at 10 µM (BRK): -1%
remaining activity at 10 µM (EGFR(T790M)): 4%
remaining activity at 10 µM (Hck(h) activated): -1%
remaining activity at 10 µM (GRK1(h)): 94%
remaining activity at 10 µM (LIMK1): 5%
remaining activity at 10 µM (STK33(h)): 109%
remaining activity at 10 µM (EGFR(L861Q)(h)): 0%
remaining activity at 10 µM [4]: 94%
remaining activity at 10 µM (CHK2(h)): 111%
remaining activity at 10 µM (LRRK2(h)): 15%
IC50 (U251): 0.1 µM
remaining activity at 10 µM (Mer): 0%
remaining activity at 10 µM (CaMKIIδ(h)): 89%
remaining activity at 10 µM (MRCKβ(h)): 87%
remaining activity at 10 µM (PKCβII(h)): 99%
remaining activity at 10 µM (SGK(h)): 90%
remaining activity at 10 µM (PKCμ(h)): 91%
remaining activity at 10 µM (HIPK3(h)): 81%
remaining activity at 10 µM (PRK2(h)): 97%
remaining activity at 10 µM (GRK7(h)): 101%
remaining activity at 10 µM (Txk): 1%
remaining activity at 10 µM (ALK2(h)): 77%
remaining activity at 10 µM (CSK; CSK(h), 10 μM, read-out: The percentage of the remaining active protein): -1%
IC50 (CSK; CSK, ATP at Km): 0.009 µM
remaining activity at 10 µM (PhKγ2(h)): 113%
SMILES: Cc1ccc(NC(=O)c2ccc(C)c(C(F)(F)F)c2)cc1C#Cc1nn([C@H]2CC[C@H](O)CC2)c2ncnc(N)c12 [Compound 93]
